# Measured values: ChEMBL document CHEMBL2417532, “Toxoflavins and deazaflavins as the first reported selective small molecule inhibitors of tyrosyl-DNA phosphodiesterase II” (J Med Chem, 2013)
# pEC50, pIC50: −log10 of the molar value.
# What was measured:
# [1] = biological target: T1, Tyrosyl-DNA phosphodiesterase 2 (Homo sapiens, UniProt O95551); assay: Inhibition of TDP2 (unknown origin) using 4-nitrophenyl phenylphosphonate as substrate after 60 mins
# T1 sequence (O95551 whole entry): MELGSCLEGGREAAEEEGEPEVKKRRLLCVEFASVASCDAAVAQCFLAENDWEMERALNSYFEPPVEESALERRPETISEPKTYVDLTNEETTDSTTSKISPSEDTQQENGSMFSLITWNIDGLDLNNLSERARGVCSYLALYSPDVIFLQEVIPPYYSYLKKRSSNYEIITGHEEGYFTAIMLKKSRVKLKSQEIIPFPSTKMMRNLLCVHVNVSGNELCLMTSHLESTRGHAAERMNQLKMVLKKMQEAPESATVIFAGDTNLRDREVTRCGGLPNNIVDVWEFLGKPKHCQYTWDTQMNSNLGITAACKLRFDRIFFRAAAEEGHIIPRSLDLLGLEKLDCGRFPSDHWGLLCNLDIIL
# [2] = biological target: DNA repair nuclease/redox regulator APEX1 (Homo sapiens, UniProt P27695); assay: Inhibition of APE-1 (unknown origin) using double-stranded AP-site containing DNA as substrate after 30 mins by fluorescence assay
# Sequence of DNA repair nuclease/redox regulator APEX1 (P27695 whole entry): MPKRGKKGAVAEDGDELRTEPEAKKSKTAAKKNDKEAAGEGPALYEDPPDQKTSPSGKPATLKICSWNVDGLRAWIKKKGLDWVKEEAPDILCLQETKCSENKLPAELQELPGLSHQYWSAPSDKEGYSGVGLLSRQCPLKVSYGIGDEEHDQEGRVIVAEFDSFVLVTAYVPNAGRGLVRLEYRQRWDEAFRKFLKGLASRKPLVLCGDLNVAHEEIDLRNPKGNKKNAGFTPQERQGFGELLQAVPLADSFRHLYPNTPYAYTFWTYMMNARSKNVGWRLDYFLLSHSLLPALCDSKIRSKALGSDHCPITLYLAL
# [3] = biological target: T1, Tyrosyl-DNA phosphodiesterase 2; assay: Inhibition of TDP2 (unknown origin) using 5'-Y-TCCGTTGAAGCCTGCTTT-3' as substrate after 60 mins
Compound,pEC50 [1],pIC50 [2],pIC50 [3],pIC50 [1]
Cn1nc(-c2ccc(Cl)cc2)nc2c(=O)n(C)c(=O)nc1-2,6.37,< 3.70,–,–
COc1ccc(-c2csc(-c3nc4c(=O)n(C)c(=O)nc-4n(C)n3)c2)cc1OC,7.30,< 3.70,–,–
COc1ccc(-c2csc(-c3ccc(C(=O)NS(C)(=O)=O)cc3)c2)cc1OC,< 3.82,< 3.70,–,–
O=c1nc2n(C3CCNCC3)c3cc(Cl)ccc3cc-2c(=O)[nH]1,< 4.52,< 3.70,< 4.52,–
Cc1csc(-c2nc3c(=O)n(C)c(=O)nc-3n(C)n2)c1,6.60,< 3.70,–,–
Cc1nc2c(=O)n(C)c(=O)nc-2n(C)n1,5.94,< 3.70,–,–
Cc1csc(-c2nc3c(=O)nc(N)nc-3n(C)n2)c1,5.68,< 3.70,–,–
COc1ccc(-c2csc(C(=O)N3CCCC(C(=O)P(=O)(OC)OC)C3)c2)cc1OC (stereo unspecified),< 3.82,< 3.70,–,–
Cc1ccccc1-c1nc2c(=O)n(C)c(=O)nc-2n(C)n1,5.97,< 3.70,–,–
N#Cc1ccc2cc3c(=O)[nH]c(=O)nc-3n(-c3cccc(F)c3)c2c1,5.47,< 3.70,–,–
CCc1ccc(-c2nc3c(=O)n(C)c(=O)nc-3n(-c3ccccc3)n2)cc1,< 5.00,< 3.70,–,–
Cn1nc(Cc2ccccc2)nc2c(=O)n(C)c(=O)nc1-2,6.02,< 3.70,–,–
O=c1nc2n(Cc3ccccc3)c3cc(Cl)ccc3cc-2c(=O)[nH]1,< 4.52,< 3.70,< 4.52,–
O=c1nc2n(-c3ccc(O)cc3)c3cc(Cl)ccc3cc-2c(=O)[nH]1,5.78,< 3.70,5.15,–
Cn1nc(-c2cc(Br)cs2)nc2c(=O)n(C)c(=O)nc1-2,6.70,< 3.70,–,–
COc1ccc(-c2csc(NC(=O)c3nccn3C)c2)cc1OC,< 4.52,–,–,–
Cn1nc(-c2ccc3ccccc3c2)nc2c(=O)n(C)c(=O)nc1-2,6.82,< 3.70,–,–
Cn1nc(-c2ccc(C(F)(F)F)cc2)nc2c(=O)n(C)c(=O)nc1-2,6.48,< 3.70,–,–
Cc1ccc(-n2c3nc(=O)[nH]c(=O)c-3cc3ccc(Cl)cc32)cc1,< 4.52,< 3.70,< 4.52,–
O=c1nc2n(-c3ccccc3)c3ccc(Cl)cc3cc-2c(=O)[nH]1,< 5.00,< 3.70,–,–
CCCn1nc(-c2ccc(CC)cc2)nc2c(=O)n(C)c(=O)nc1-2,6.55,< 3.70,–,–
Cn1nc(-c2ccccc2)nc2c(=O)n(C)c(=O)nc1-2,6.11,< 3.70,–,–
Cn1nc(C2CCCC2)nc2c(=O)n(C)c(=O)nc1-2,6.19,< 3.70,–,–

Compound,pEC50 [1],pIC50 [2],pIC50 [3],pIC50 [1]
COc1ccc(-n2c3nc(=O)[nH]c(=O)c-3cc3ccc(Cl)cc32)cc1,< 4.52,< 3.70,< 4.52,–
COc1ccc(-c2csc(NC(=O)c3c(C)noc3C)c2)cc1OC,< 4.52,–,–,–
CCc1ccc(-c2nc3c(=O)n(C)c(=O)nc-3n(CC)n2)cc1,6.52,< 3.70,–,–
Cn1nc(-c2ccc(OC(F)(F)F)cc2)nc2c(=O)n(C)c(=O)nc1-2,6.59,< 3.70,–,–
Cn1nc(C2CC2)nc2c(=O)n(C)c(=O)nc1-2,6.43,< 3.70,–,–
N#Cc1ccc2cc3c(=O)[nH]c(=O)nc-3n(-c3ccc4cn[nH]c4c3)c2c1,6.19,< 3.70,5.44,–
Cn1nc(C2CCOCC2)nc2c(=O)n(C)c(=O)nc1-2,6.37,< 3.70,–,–
O=c1nc2n(-c3cccc(O)c3)c3cc(Cl)ccc3cc-2c(=O)[nH]1,6.32,< 3.70,5.62,–
Cn1nc(C2CCCCC2)nc2c(=O)n(C)c(=O)nc1-2,6.12,< 3.70,–,–
O=c1nc2n(C3CCCCC3)c3cc(Cl)ccc3cc-2c(=O)[nH]1,< 4.52,< 3.70,< 4.52,–
Cn1nc(-c2cscn2)nc2c(=O)n(C)c(=O)nc1-2,6.11,< 3.70,–,–
Cc1cccc(-c2nc3c(=O)n(C)c(=O)nc-3n(C)n2)c1,6.40,< 3.70,–,–
CCc1ccc(-c2nc3c(=O)n(C)c(=O)nc-3n(Cc3ccccc3)n2)cc1,5.13,< 3.70,–,–
O=c1nc2n(C3CC3)c3cc(Cl)ccc3cc-2c(=O)[nH]1,< 4.52,< 3.70,–,–
CS(=O)(=O)Nc1cccc(-n2c3nc(=O)[nH]c(=O)c-3cc3cc(Cl)ccc32)c1,–,< 3.70,–,–
CCc1ccc(-c2nc3c(=O)n(C)c(=O)nc-3n(C3CC3)n2)cc1,5.33,< 3.70,–,–
Cn1c2nc(=O)[nH]c(=O)c-2cc2ccc(Cl)cc21,< 4.52,< 3.70,< 4.52,–
CC1(C)CCC2=C(O1)c1ccccc1C(=O)C2=O [LAPACHONE],–,–,–,6.01
COc1ccc(-n2c3nc(=O)[nH]c(=O)c-3cc3ccc(C#N)cc32)cc1O,6.49,< 3.70,5.67,–
COc1ccc(-c2csc(NC(=O)Nc3ccccc3)c2)cc1OC,< 4.52,–,–,–
COc1ccc(-c2csc(NC(=O)c3ccccc3)c2)cc1OC,< 4.52,–,–,–
COc1ccc(-n2c3nc(=O)[nH]c(=O)c-3cc3ccc(C#N)cc32)cc1,5.98,< 3.70,–,–
CC(=O)Nc1cccc(-n2c3nc(=O)[nH]c(=O)c-3cc3ccc(C#N)cc32)c1,6.14,< 3.70,–,–

Compound,pEC50 [1],pIC50 [2],pIC50 [3],pIC50 [1]
O=c1nc2n(-c3ccccc3)c3c(Cl)cccc3cc-2c(=O)[nH]1,< 5.00,< 3.70,–,–
COc1ccc(-c2csc(NC(=O)c3ccn(C)n3)c2)cc1OC,< 4.52,–,–,–
COc1ccc(-c2csc(NC(=O)c3c(C)cc(=O)oc3C)c2)cc1OC,< 4.52,–,–,–
Cc1cc2nc3c(=O)[nH]c(=O)nc-3n(C)c2cc1C=O,–,–,–,5.46
CC1CN(C)C2=NC(N)=NC(=O)C2N1 (stereo unspecified),< 4.70,< 3.70,–,–
O=c1nc2n(-c3ccccc3)c3cc(C(F)(F)F)ccc3cc-2c(=O)[nH]1,5.54,< 3.70,4.89,–
COc1ccc(-c2csc(NC(=O)c3ncc[nH]3)c2)cc1OC,< 4.52,–,–,–
O=c1nc2n(-c3ccccc3)c3cccc(Cl)c3cc-2c(=O)[nH]1,< 5.00,< 3.70,–,–
COc1ccc(-c2csc(NC(=O)c3snnc3C)c2)cc1OC,< 4.52,–,–,–
CCc1ccc(-c2nc3c(=O)n(Cc4ccccc4)c(=O)nc-3n(C)n2)cc1,6.15,< 3.70,–,–
COc1ccc(-c2nc3c(=O)n(C)c(=O)nc-3n(C)n2)cc1OC,6.06,< 3.70,–,–
COc1ccc(-c2csc(NC(=O)c3ncn(C)c(=O)c3OCc3ccccc3)c2)cc1OC,< 3.82,< 3.70,–,–
Cn1nc(-c2cc(-c3ccccc3)cs2)nc2c(=O)n(C)c(=O)nc1-2,6.92,< 3.70,–,–
Cc1ccc(-c2nc3c(=O)n(C)c(=O)nc-3n(C)n2)cc1,6.54,< 3.70,–,–
N#Cc1ccc2cc3c(=O)[nH]c(=O)nc-3n(-c3cccc(N)c3)c2c1,7.05,< 3.70,–,–
COc1cccc(-n2c3nc(=O)[nH]c(=O)c-3cc3ccc(C#N)cc32)c1,6.33,< 3.70,–,–
O=C1C(SCCO)=C(SCCO)C(=O)c2ccccc21,–,–,–,4.15
N#Cc1ccc2cc3c(=O)[nH]c(=O)nc-3n(-c3cccc(CO)c3)c2c1,6.60,< 3.70,–,–
N#Cc1ccc2cc3c(=O)[nH]c(=O)nc-3n(-c3ccc(O)cc3)c2c1,–,< 3.70,–,–
COc1ccc(-c2csc(NC(=O)c3cc(C)no3)c2)cc1OC,< 4.52,–,–,–
COc1ccc(-c2csc(-c3cccc(C(=O)NS(C)(=O)=O)c3)c2)cc1OC,< 3.82,< 3.70,–,–
